# System: MV-4-11 cells
# Assay: Gene expression microarray analysis (Affymetrix PrimeView) and GSEA
# Type: cell-based, human
# Design: RFU PODN (11730768_x_at) / Fold change /veh PODN (11730768_x_at) / RFU LINC00158 (11744669_a_at) / Fold change /veh LINC00158 (11744669_a_at) / RFU DUSP10 (11751237_a_at) / Fold change /veh DUSP10 (11751237_a_at) / RFU ID3 (11757404_x_at) / Fold change /veh ID3 (11757404_x_at) / RFU PLEKHG5 (11737974_s_at) / Fold change /veh PLEKHG5 (11737974_s_at) / RFU LRRC4B (11730491_at) / Fold change /veh LRRC4B (11730491_at) / RFU GIMAP4 (11747438_a_at) / Fold change /veh GIMAP4 (11747438_a_at) / RFU KRT8 (11758183_x_at) / Fold change /veh KRT8 (11758183_x_at) / RFU CNN1 (11734310_a_at) / Fold change /veh CNN1 (11734310_a_at) / RFU VPS37D (11726825_at) / Fold change /veh VPS37D (11726825_at) / RFU C10orf10 (11716522_x_at) / Fold change /veh C10orf10 (11716522_x_at) / RFU KIR2DL2 /// KIR2DL4 /// KIR2DL5A /// KIR2DL5B /// KIR2DS1 /// KIR2DS2 /// KIR2DS3 /// KIR2DS4 /// KIR3DL3 /// KIR3DL3 /// KIR3DS1 (11738374_at) / Fold change /veh KIR2DL2 /// KIR2DL4 /// KIR2DL5A /// KIR2DL5B /// KIR2DS1 /// KIR2DS2 /// KIR2DS3 /// KIR2DS4 /// KIR3DL3 /// KIR3DL3 /// KIR3DS1 (11738374_at) / RFU C1QL1 (11718748_at) / Fold change /veh C1QL1 (11718748_at) / RFU TMPRSS4 (11747572_a_at) / Fold change /veh TMPRSS4 (11747572_a_at) / RFU HAMP (11756126_x_at) / Fold change /veh HAMP (11756126_x_at) / RFU RNFT2 (11725882_a_at) / Fold change /veh RNFT2 (11725882_a_at) / RFU NR4A2 (11747474_a_at) / Fold change /veh NR4A2 (11747474_a_at) / RFU ABCC12 (11746883_a_at) / Fold change /veh ABCC12 (11746883_a_at) / RFU TMEM136 (11760407_x_at) / Fold change /veh TMEM136 (11760407_x_at) / RFU CLDN22 /// WWC2 (11732394_at) / Fold change /veh CLDN22 /// WWC2 (11732394_at) / RFU HLA-DPB1 (11760878_x_at) / Fold change /veh HLA-DPB1 (11760878_x_at) / RFU SPINT1 (11716480_a_at) / Fold change /veh SPINT1 (11716480_a_at) / RFU GAP43 (11754022_s_at) / Fold change /veh GAP43 (11754022_s_at) / RFU A4GNT (11735810_at) / Fold change /veh A4GNT (11735810_at) / RFU PRB3 (11715151_x_at) / Fold change /veh PRB3 (11715151_x_at) / RFU TUBB4B (11761932_at) / Fold change /veh TUBB4B (11761932_at) / RFU CAPN14 (11732068_a_at) / Fold change /veh CAPN14 (11732068_a_at) / RFU TMCC2 (11721928_a_at) / Fold change /veh TMCC2 (11721928_a_at) / RFU IRGQ (11745062_a_at) / Fold change /veh IRGQ (11745062_a_at) / RFU FAM174B (11720279_a_at) / Fold change /veh FAM174B (11720279_a_at) / RFU TMPRSS4 (11748680_a_at) / Fold change /veh TMPRSS4 (11748680_a_at) / RFU FAM212B (11763350_a_at) / Fold change /veh FAM212B (11763350_a_at) / RFU PLEKHG5 (11743358_a_at) / Fold change /veh PLEKHG5 (11743358_a_at) / RFU ZSCAN30 (11745921_a_at) / Fold change /veh ZSCAN30 (11745921_a_at) / RFU CMKLR1 (11741424_a_at) / Fold change /veh CMKLR1 (11741424_a_at) / RFU LOC101060620 /// MAPK8IP1 (11723275_at) / Fold change /veh LOC101060620 /// MAPK8IP1 (11723275_at) / RFU SPTSSB (11747773_x_at) / Fold change /veh SPTSSB (11747773_x_at) / RFU PRSS12 (11739890_at) / Fold change /veh PRSS12 (11739890_at) / RFU BIN1 (11741810_x_at) / Fold change /veh BIN1 (11741810_x_at) / RFU WNT11 (11732464_a_at) / Fold change /veh WNT11 (11732464_a_at) / RFU C10orf10 (11716521_a_at) / Fold change /veh C10orf10 (11716521_a_at) / RFU C5orf56 (11738089_at) / Fold change /veh C5orf56 (11738089_at) / RFU CYB561 (11721691_x_at) / Fold change /veh CYB561 (11721691_x_at) / RFU ANKRD19P (11752326_a_at) / Fold change /veh ANKRD19P (11752326_a_at) / RFU OR2T12 /// OR2T33 /// OR2T8 (11738714_s_at) / Fold change /veh OR2T12 /// OR2T33 /// OR2T8 (11738714_s_at) / RFU VCAN (11748164_a_at) / Fold change /veh VCAN (11748164_a_at) / RFU JSRP1 (11732532_at) / Fold change /veh JSRP1 (11732532_at) / RFU KRTAP10-11 (11738290_x_at) / Fold change /veh KRTAP10-11 (11738290_x_at) / RFU MYO3A (11730013_a_at) / Fold change /veh MYO3A (11730013_a_at) / RFU EBF3 (11725865_a_at) / Fold change /veh EBF3 (11725865_a_at) / RFU CAMK2N1 (11719241_x_at) / Fold change /veh CAMK2N1 (11719241_x_at) / RFU C5orf56 (11738088_a_at) / Fold change /veh C5orf56 (11738088_a_at) / RFU OLFML3 (11715873_a_at) / Fold change /veh OLFML3 (11715873_a_at) / RFU LOC100653217 /// NTM (11731650_a_at) / Fold change /veh LOC100653217 /// NTM (11731650_a_at) / RFU MAPK11 (11762145_a_at) / Fold change /veh MAPK11 (11762145_a_at) / RFU FIZ1 (11724087_x_at) / Fold change /veh FIZ1 (11724087_x_at) / RFU OASL (11726364_x_at) / Fold change /veh OASL (11726364_x_at) / RFU SOX15 (11748057_x_at) / Fold change /veh SOX15 (11748057_x_at) / RFU CD79A (11719716_a_at) / Fold change /veh CD79A (11719716_a_at) / RFU HIST1H1D (11736915_at) / Fold change /veh HIST1H1D (11736915_at) / RFU CASKIN2 (11723855_a_at) / Fold change /veh CASKIN2 (11723855_a_at) / RFU LOC730098 (11760151_x_at) / Fold change /veh LOC730098 (11760151_x_at) / RFU OR4N2 (11742367_at) / Fold change /veh OR4N2 (11742367_at) / RFU PRRT2 (11749266_a_at) / Fold change /veh PRRT2 (11749266_a_at) / RFU SNX32 (11753110_a_at) / Fold change /veh SNX32 (11753110_a_at) / RFU CDHR5 (11726645_a_at) / Fold change /veh CDHR5 (11726645_a_at) / RFU RCAN1 (11760418_a_at) / Fold change /veh RCAN1 (11760418_a_at) / RFU FAM167A (11723789_a_at) / Fold change /veh FAM167A (11723789_a_at) / RFU FAM26E (11764081_at) / Fold change /veh FAM26E (11764081_at) / RFU ISYNA1 (11749810_s_at) / Fold change /veh ISYNA1 (11749810_s_at) / RFU ACY1 (11761880_at) / Fold change /veh ACY1 (11761880_at) / RFU 11764098_at / Fold change /veh 11764098_at / RFU SAMD14 (11745864_x_at) / Fold change /veh SAMD14 (11745864_x_at) / RFU NPB (11741838_a_at) / Fold change /veh NPB (11741838_a_at) / RFU TMPRSS6 (11731388_a_at) / Fold change /veh TMPRSS6 (11731388_a_at) / RFU KRTAP10-2 (11738614_at) / Fold change /veh KRTAP10-2 (11738614_at) / RFU ARHGAP8 /// PRR5-ARHGAP8 (11727945_x_at) / Fold change /veh ARHGAP8 /// PRR5-ARHGAP8 (11727945_x_at) / RFU KRTAP5-7 /// NADSYN1 (11734609_at) / Fold change /veh KRTAP5-7 /// NADSYN1 (11734609_at) / RFU RASL12 (11751679_a_at) / Fold change /veh RASL12 (11751679_a_at) / RFU CDKN2B (11736163_a_at) / Fold change /veh CDKN2B (11736163_a_at) / RFU PRF1 (11729649_at) / Fold change /veh PRF1 (11729649_at) / RFU, ZNF638 /// ZNF638-IT1 / Fold change vs veh, ZNF638 /// ZNF638-IT1 / RFU, PANK3 / Fold change vs veh, PANK3 / RFU, SH3YL1 / Fold change vs veh, SH3YL1 / RFU, ZEB2 / Fold change vs veh, ZEB2 / RFU, NRIP1 / Fold change vs veh, NRIP1 / RFU, PTTG1IP / Fold change vs veh, PTTG1IP / RFU, CAPN2 / Fold change vs veh, CAPN2 / RFU, MED14 / Fold change vs veh, MED14 / RFU, SNORA58 / Fold change vs veh, SNORA58 / RFU, C1orf63 / Fold change vs veh, C1orf63 / RFU, LRRFIP1 / Fold change vs veh, LRRFIP1 / RFU, NDUFAF7 / Fold change vs veh, NDUFAF7 / RFU, SLC12A2 / Fold change vs veh, SLC12A2 / RFU, IBTK / Fold change vs veh, IBTK / RFU, ESF1 / Fold change vs veh, ESF1 / Fold change vs veh, TMEM50B / RFU, TAOK1 / Fold change vs veh, TAOK1 / RFU, ACBD3 / Fold change vs veh, ACBD3 / RFU, TMA16 / Fold change vs veh, TMA16 / RFU, RWDD3 / Fold change vs veh, RWDD3 / RFU, BCAT1 / Fold change vs veh, BCAT1 / RFU, EDEM3 / Fold change vs veh, EDEM3 / RFU, TMEM33 / Fold change vs veh, TMEM33 / RFU, WDR75 / Fold change vs veh, WDR75 / RFU, AHCTF1 / Fold change vs veh, AHCTF1 / RFU, TFRC / Fold change vs veh, TFRC / RFU, ZDHHC17 / Fold change vs veh, ZDHHC17 / RFU, NOM1 / Fold change vs veh, NOM1 / RFU, ARL8B / Fold change vs veh, ARL8B / RFU, ZBTB11 / Fold change vs veh, ZBTB11 / RFU, TAMM41 / Fold change vs veh, TAMM41 / RFU, KIAA1704 /// LOC100996395 / Fold change vs veh, KIAA1704 /// LOC100996395 / RFU, ING1 / Fold change vs veh, ING1 / RFU, TRMT61B / Fold change vs veh, TRMT61B / RFU, FUBP3 / Fold change vs veh, FUBP3 / RFU, TP53 / Fold change vs veh, TP53 / RFU, TNKS2 / Fold change vs veh, TNKS2 / RFU, ZFP14 / Fold change vs veh, ZFP14 / RFU, ACTR2 / Fold change vs veh, ACTR2 / RFU, PPP3R1 / Fold change vs veh, PPP3R1 / RFU, PIK3R1 / Fold change vs veh, PIK3R1 / RFU, HNRNPA1 / Fold change vs veh, HNRNPA1 / RFU, RNF170 / Fold change vs veh, RNF170 / RFU, ZNF28 / Fold change vs veh, ZNF28 / RFU, RNGTT / Fold change vs veh, RNGTT / RFU, OGT / Fold change vs veh, OGT / RFU, BRD1 / Fold change vs veh, BRD1 / RFU, MARS / Fold change vs veh, MARS / RFU, ZNF655 / Fold change vs veh, ZNF655 / RFU, FAHD1 / Fold change vs veh, FAHD1 / RFU, BDP1 / Fold change vs veh, BDP1 / RFU, LRRCC1 / Fold change vs veh, LRRCC1 / RFU, ARID1A / Fold change vs veh, ARID1A / RFU, ZNF146 / Fold change vs veh, ZNF146 / RFU, ZNF330 / Fold change vs veh, ZNF330 / RFU, GPN3 / Fold change vs veh, GPN3 / RFU, C9orf123 / Fold change vs veh, C9orf123 / RFU, N4BP2L2 / Fold change vs veh, N4BP2L2 / RFU, ARFIP1 / Fold change vs veh, ARFIP1 / RFU, FAM179B / Fold change vs veh, FAM179B / RFU, BCL10 / Fold change vs veh, BCL10 / RFU, UHRF1BP1L / Fold change vs veh, UHRF1BP1L / RFU, BET1 / Fold change vs veh, BET1 / RFU, CNOT2 / Fold change vs veh, CNOT2 / RFU, ZNF268 / Fold change vs veh, ZNF268 / Fold change vs veh, ZNF507 / RFU, DGCR2 / Fold change vs veh, DGCR2 / RFU, WDSUB1 / Fold change vs veh, WDSUB1 / Fold change vs veh, HSP90B1 /// MIR3652 / RFU, ADSS / Fold change vs veh, ADSS / RFU, GK / Fold change vs veh, GK / RFU, ZNF148 / Fold change vs veh, ZNF148 / RFU, TAF9 / Fold change vs veh, TAF9 / RFU, SLC1A5 / Fold change vs veh, SLC1A5 / RFU, SLMO2 / Fold change vs veh, SLMO2 / RFU, ABCC4 / Fold change vs veh, ABCC4 / RFU, LOC101060439 /// RAP1B / Fold change vs veh, LOC101060439 /// RAP1B / RFU, RFX7 / Fold change vs veh, RFX7 / RFU, GTPBP10 / Fold change vs veh, GTPBP10 / RFU, CNEP1R1 / Fold change vs veh, CNEP1R1 / RFU, BIVM-ERCC5 /// ERCC5 / Fold change vs veh, BIVM-ERCC5 /// ERCC5 / RFU, ILF3 / Fold change vs veh, ILF3 / RFU 11762660_at / Fold change /veh 11762660_at / RFU VCAN (11757783_s_at) / Fold change /veh VCAN (11757783_s_at) / RFU DDX43 (11728927_at) / Fold change /veh DDX43 (11728927_at) / RFU KRT8 (11758188_x_at) / Fold change /veh KRT8 (11758188_x_at) / RFU NKD1 (11759106_at) / Fold change /veh NKD1 (11759106_at) / RFU SRD5A1 (11742802_a_at) / Fold change /veh SRD5A1 (11742802_a_at) / RFU TPSAB1 /// TPSB2 (11721975_s_at) / Fold change /veh TPSAB1 /// TPSB2 (11721975_s_at) / RFU GSTM3 (11746129_a_at) / Fold change /veh GSTM3 (11746129_a_at) / RFU IL23R (11737362_x_at) / Fold change /veh IL23R (11737362_x_at) / RFU TMEM51 (11727254_a_at) / Fold change /veh TMEM51 (11727254_a_at) / RFU PIWIL2 (11732686_x_at) / Fold change /veh PIWIL2 (11732686_x_at) / RFU ORM1 (11744905_x_at) / Fold change /veh ORM1 (11744905_x_at) / RFU CCDC152 (11743942_at) / Fold change /veh CCDC152 (11743942_at) / RFU ECM1 (11717891_a_at) / Fold change /veh ECM1 (11717891_a_at) / RFU IL23R (11748794_a_at) / Fold change /veh IL23R (11748794_a_at) / RFU TNFAIP8L3 (11732012_x_at) / Fold change /veh TNFAIP8L3 (11732012_x_at) / RFU MBOAT4 (11741988_at) / Fold change /veh MBOAT4 (11741988_at) / RFU 11764193_at / Fold change /veh 11764193_at / RFU TMEM53 (11763286_at) / Fold change /veh TMEM53 (11763286_at) / RFU MAGEB2 (11727129_at) / Fold change /veh MAGEB2 (11727129_at) / RFU TMEM200A (11744735_a_at) / Fold change /veh TMEM200A (11744735_a_at) / RFU CCDC152 (11751479_a_at) / Fold change /veh CCDC152 (11751479_a_at) / RFU FAM211A (11726209_a_at) / Fold change /veh FAM211A (11726209_a_at) / RFU RGS16 (11746705_a_at) / Fold change /veh RGS16 (11746705_a_at) / RFU VCAN (11755009_s_at) / Fold change /veh VCAN (11755009_s_at) / RFU RHOB (11743442_s_at) / Fold change /veh RHOB (11743442_s_at) / RFU RGS16 (11720943_a_at) / Fold change /veh RGS16 (11720943_a_at) / RFU RGS16 (11720944_at) / Fold change /veh RGS16 (11720944_at) / RFU, VPS4B / Fold change vs veh, VPS4B / RFU, CREB1 / Fold change vs veh, CREB1 / RFU, DNAJC13 / Fold change vs veh, DNAJC13 / RFU, GNAQ / Fold change vs veh, GNAQ / RFU, CDK5R1 / Fold change vs veh, CDK5R1 / RFU, ZRANB3 / Fold change vs veh, ZRANB3 / RFU, CUL4A / Fold change vs veh, CUL4A / RFU, CCNY / Fold change vs veh, CCNY / RFU, UFL1 / Fold change vs veh, UFL1 / RFU, COG3 / Fold change vs veh, COG3 / RFU, DIAPH2 / Fold change vs veh, DIAPH2 / RFU, SKA2 / Fold change vs veh, SKA2 / RFU, AFF3 / Fold change vs veh, AFF3 / RFU, LMF1 / Fold change vs veh, LMF1 / RFU, IPO11 / Fold change vs veh, IPO11 / RFU, DFFB / Fold change vs veh, DFFB / RFU, FOXP1 / Fold change vs veh, FOXP1 / RFU, CARD8 / Fold change vs veh, CARD8 / RFU, STRN3 / Fold change vs veh, STRN3 / RFU, ADK / Fold change vs veh, ADK / RFU, RASSF2 / Fold change vs veh, RASSF2 / RFU, WIPF1 / Fold change vs veh, WIPF1 / RFU, LARP1B / Fold change vs veh, LARP1B / RFU, RASA1 / Fold change vs veh, RASA1 / RFU, RB1 / Fold change vs veh, RB1 / RFU, PPFIA1 / Fold change vs veh, PPFIA1 / RFU, MAT2A / Fold change vs veh, MAT2A / RFU, CCT5 / Fold change vs veh, CCT5 / RFU, WDR92 / Fold change vs veh, WDR92 / RFU, CUX1 / Fold change vs veh, CUX1 / RFU, TTC7A / Fold change vs veh, TTC7A / RFU, TMEM135 / Fold change vs veh, TMEM135 / RFU, DEPTOR / Fold change vs veh, DEPTOR / RFU, CPM / Fold change vs veh, CPM / RFU, DNAJB6 / Fold change vs veh, DNAJB6 / RFU, CACNA2D3 / Fold change vs veh, CACNA2D3 / RFU, DTX4 / Fold change vs veh, DTX4 / RFU, TFCP2 / Fold change vs veh, TFCP2 / RFU, GMCL1 /// GMCL1P1 / Fold change vs veh, GMCL1 /// GMCL1P1 / RFU, AEBP2 / Fold change vs veh, AEBP2 / RFU, SNHG1 /// SNORD22 /// SNORD25 /// SNORD26 /// SNORD27 /// SNORD28 /// SNORD29 /// SNORD31 / Fold change vs veh, SNHG1 /// SNORD22 /// SNORD25 /// SNORD26 /// SNORD27 /// SNORD28 /// SNORD29 /// SNORD31 / Fold change (Aza/veh), C12orf56 (ProbeSet 11735607_a_at) / Fold change (ACY-1035/veh), C12orf56 (ProbeSet 11735607_a_at) / Fold change (Aza/veh), FGFR1OP (ProbeSet 11751329_s_at) / Fold change (ACY-1035/veh), FGFR1OP (ProbeSet 11751329_s_at) / Fold change (Aza/veh), VPS36 (ProbeSet 11739960_a_at) / Fold change (ACY-1035/veh), VPS36 (ProbeSet 11739960_a_at) / RFU SYPL1 (11715823_x_at) / Fold change /veh SYPL1 (11715823_x_at) / RFU IGFBP7 (11715501_s_at) / Fold change /veh IGFBP7 (11715501_s_at) / RFU REEP3 (11722064_at) / Fold change /veh REEP3 (11722064_at) / RFU IGLL1 (11728026_x_at) / Fold change /veh IGLL1 (11728026_x_at): dose or concentration left out as unconfirmed
# Conditions: MV-4-11 cells, 48 hours
structure (smiles),measurement,value
Nc1ccc(-c2cccs2)cc1NC(=O)c1ccc2c(c1)cc(C1CC1)n2CCN1CCOCC1 [ACY-1035],RFU C5orf56 (11738088_a_at),66.78 RFU

# — paper PMC5218480 (PLoS ONE, 2017)
